In assay [1] the target is C-C chemokine receptor type 5 (Homo sapiens, UniProt P51681). In words: Displacement of […] from human CCR5 receptor coexpressed with Galphai6 in CHO cells after 2 hrs by scintillation counting. Type of assay: cell-based.
Assay [2] concerns Human immunodeficiency virus 1. Briefly: Antiviral activity against CCR5-tropic recombinant HIV1 NLBal virus infected in JC53-BL cells assessed as inhibition of viral replication after 3 days by luciferase reporter gene assay. Type of assay: functional, organism-based. Conditions: Human immunodeficiency virus 1, NLBal, JC53BL, 72 h. In general terms: Reporter assays use an easily measured gene product as a stand-in for the process of interest.

The structures appear in SMILES notation. Where only a bound is given, the exact number is not on record here.

Sequence of C-C chemokine receptor type 5 (P51681 whole entry): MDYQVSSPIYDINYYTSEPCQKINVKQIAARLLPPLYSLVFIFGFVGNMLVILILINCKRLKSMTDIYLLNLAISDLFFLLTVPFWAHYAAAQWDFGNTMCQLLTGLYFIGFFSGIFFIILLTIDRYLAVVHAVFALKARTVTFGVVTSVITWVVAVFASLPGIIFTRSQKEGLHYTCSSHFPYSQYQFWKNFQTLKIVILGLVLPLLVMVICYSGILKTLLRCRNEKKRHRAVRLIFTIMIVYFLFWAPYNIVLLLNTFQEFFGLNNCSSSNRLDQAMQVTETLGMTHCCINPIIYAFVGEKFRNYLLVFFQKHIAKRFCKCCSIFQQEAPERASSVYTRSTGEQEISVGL

For `Cc1nnc(C)n1[C@H]1C[C@H]2CC[C@@H](C1)N2CC[C@H](NC(=O)C1CCOC1)c1cccc(F)c1` (some centres not stated), the IC50 (commonly the concentration that gives 50% inhibition) was 7 nM in assay [1] and 62 nM in assay [2]. Taken in the same sequence, the figures for `Cc1nnc(C)n1[C@@H]1C[C@@H]2CN(CC[C@H](NC(=O)C3CCOCC3)c3cccc(F)c3)C[C@@H]2C1` were 30 nM and at least 625 nM. Take `Cc1nnc(C)n1[C@H]1C[C@@H]2CN(CC[C@H](NC(=O)C3CCOCC3)c3cccc(F)c3)C[C@@H]2C1`: the IC50 in assay [1] was 43 nM; in assay [2], at least 625 nM.

`Cc1nnc(C)n1[C@@H]1C[C@@H]2CN(CC[C@H](NC(=O)C3CC(F)(F)C3)c3cccc(F)c3)C[C@@H]2C1`: the results for the IC50 in assay [1] and in assay [2] were 6 nM and 74 nM, respectively. Taken in the same sequence, the figures for `Cc1nnc(C)n1[C@H]1C[C@H]2CC[C@@H](C1)N2CC[C@H](NC(=O)C1CC(F)(F)C1)c1cccc(F)c1` were 5 nM and 24 nM. Taken in the same sequence, the figures for `Cc1nnc(C)n1[C@H]1C[C@H]2CC[C@@H](C1)N2CC[C@H](NC(=O)C1CCOCC1)c1cccc(F)c1` were 13 nM and 220 nM. Regarding `Cc1nnc(C)n1[C@@H]1C[C@@H]2CN(CC[C@H](NC(=O)C3CCC(F)(F)CC3)c3cccc(F)c3)C[C@@H]2C1`, the IC50 is 8 nM in assay [1] and 41 nM in assay [2]. For `Cc1nnc(C)n1C1CCN(CC[C@H](NC(=O)C2CCC(F)(F)CC2)c2cccc(F)c2)CC1`, the IC50 in assay [1] was 38 nM; in assay [2] it was at least 625 nM. Regarding `Cc1nnc(C)n1[C@H]1C[C@@H]2CN(CC[C@H](NC(=O)C3CCC(F)(F)CC3)c3cccc(F)c3)C[C@@H]2C1`, in assay [2], the 50% inhibitory concentration (IC50) was determined as 81 nM. Turning to `Cc1nnc(C)n1[C@H]1C[C@@H]2CN(CC[C@H](NC(=O)C3CC(F)(F)C3)c3cccc(F)c3)C[C@@H]2C1`, the IC50 is 6 nM in assay [1] and 200 nM in assay [2]. On the same counts, the results for `Cc1nnc(C)n1[C@H]1C[C@@H]2CN(CC[C@H](NC(=O)C3CCOC3)c3cccc(F)c3)C[C@@H]2C1` (some centres not stated) are 35 nM and 40 nM.

With `Cc1nnc(C)n1C1CCN(CC[C@H](NC(=O)C2CCOC2)c2cccc(F)c2)CC1` (some centres not stated), in assay [2], the IC50 is at least 625 nM.

As for `Cc1nnc(C(C)C)n1[C@H]1C[C@H]2CC[C@@H](C1)N2CC[C@H](NC(=O)C1CCC(F)(F)CC1)c1ccccc1` [MARAVIROC], the IC50 in assay [2] was 2.8 nM. Consider `Cc1nnc(C)n1[C@@H]1C[C@@H]2CN(CC[C@H](NC(=O)C3CCOC3)c3cccc(F)c3)C[C@@H]2C1` (some centres not stated), for which the IC50 amounted to 18 nM in assay [1] and 210 nM in assay [2].

In the case of `Cc1nnc(C)n1[C@H]1C[C@H]2CC[C@@H](C1)N2CC[C@H](NC(=O)C1CCC(F)(F)CC1)c1cccc(F)c1`, the IC50 in assay [1] and in assay [2] was 5 nM in each case.

Source of the values: ChEMBL document CHEMBL1154938 (Bioorg Med Chem Lett, 2010).
